# Assays:
# Assay in all cases: in vitro antibacterial evaluation, MIC by broth dilution
# Assay type in all cases: cell-based
# [1] = system: Enterococcus sp.; conditions: broth dilution, 18 hours at 35° C.
# Description: (§1) Methods for in vitro Antibacterial Evaluation (Table 1)
# (§2) The minimum inhibitory concentration (MIC), the lowest concentration of the antibiotic which inhibits growth of the test organism, is determined by the broth dilution method using Muller-Hinton II […] (Baltimore Biological Laboratories) following the recommendations of the National Committee for Clinical Laboratory Standards [Methods for dilution antimicrobial susceptibility tests for bacteria that grow aerobically, approved standard M7-A2, National Committee for Clinical Laboratory Standards, Villanova, Pa.].
# (§3) An inoculum level of 5×10^5 CFU/mL, and a range of antibiotic concentrations (64-0.06 μg/mL) is used. […] The test organisms include a spectrum of Gram-positive bacteria comprised of Staphylococcus sp., Streptococcus sp. and Enterococcus sp. These organisms include recent clinical isolates that are resistant to methicillin, penicillin and/or vancomycin.
# [2] = system: Staphylococcus sp.; conditions: broth dilution, 18 hours at 35° C.
# Description: as §1, §2, §3
# [3] = system: Streptococcus sp.; conditions: broth dilution, 18 hours at 35° C.
# Description: as §1, §2, §3
# [4] = system: Escherichia coli; conditions: 18 hours at 35° C.
# Description: as §2, §3
structure (smiles),measurement,setting,value
CCCCCCN=C1NCC(C(O)C2NC(=O)C(C(O)C3CNC(=N)N3)NC(=O)C(Cc3ccc(OC4OC(CO)C(OC5OC6COC7(OC6C(O)C5O)C5CC6CC(C5)CC7C6)C(O)C4O)cc3)NC(=O)C(C(C)c3ccccc3)NC(=O)CNC(=O)C(CO)NC2=O)N1C1OC(CO)C(O)C(O)C1O (centres unmarked) [Example 84],MIC Enterococcus avium (GC 4558),[1]; Enterococcus avium (GC 4558),8 µg/mL
same,MIC Enterococcus faecalis (ATCC 29212),[1]; Enterococcus faecalis (ATCC 29212),8 µg/mL
same,MIC Enterococcus faecalis (GC 4552),[1]; Enterococcus faecalis (GC 4552),8 µg/mL
same,MIC Enterococcus faecalis (GC 4553),[1]; Enterococcus faecalis (GC 4553),8 µg/mL
same,MIC Enterococcus faecalis (GC 4554),[1]; Enterococcus faecalis (GC 4554),16 µg/mL
same,MIC Enterococcus faecalis (GC 6189),[1]; Enterococcus faecalis (GC 6189),8 µg/mL
same,MIC Enterococcus faecium (GC 2243),[1]; Enterococcus faecium (GC 2243),4 µg/mL
same,MIC Enterococcus faecium (GC 4556),[1]; Enterococcus faecium (GC 4556),8 µg/mL
same,MIC Enterococcus faecium (GC 4557),[1]; Enterococcus faecium (GC 4557),1 µg/mL
same,MIC Enterococcus avium (GC 4558),[1],8 µg/mL
same,MIC Enterococcus faecalis (ATCC 29212),[1],8 µg/mL
same,MIC Enterococcus faecalis (GC 2242),[1],8 µg/mL
same,MIC Enterococcus faecalis (GC 2691),[1],8 µg/mL
same,MIC Enterococcus faecalis (GC 3059),[1],8 µg/mL
same,MIC Enterococcus faecalis (GC 4552),[1],8 µg/mL
same,MIC Enterococcus faecalis (GC 4553),[1],8 µg/mL
same,MIC Enterococcus faecalis (GC 4554),[1],16 µg/mL
same,MIC Enterococcus faecalis (GC 6189),[1],8 µg/mL
same,MIC Enterococcus faecium (GC 2243),[1],4 µg/mL
same,MIC Enterococcus faecium (GC 4556),[1],8 µg/mL
same,MIC Enterococcus faecium (GC 4557),[1],1 µg/mL
same,MIC Enterococcus faecalis (GC 2242),[1]; strain GC 2242,8 µg/mL
same,MIC Enterococcus faecalis (GC 2691),[1]; strain GC 2691,8 µg/mL
same,MIC Enterococcus faecalis (GC 3059),[1]; strain GC 3059,8 µg/mL
same,MIC Coagulase Negative Staphylococcus (GC 4547),[2],4 µg/mL
same,MIC Coagulase Negative Staphylococcus (GC 4548),[2],4 µg/mL
same,MIC Coagulase Negative Staphylococcus (GC 4549),[2],4 µg/mL
same,MIC Coagulase Negative Staphylococcus (GC 4551),[2],4 µg/mL
same,MIC Coagulase Negative Staphylococcus (GC 6257),[2],2 µg/mL
same,MIC Staphylococcus aureus-SMITH (GC 4543),[2],4 µg/mL
same,MIC Staphylococcus haemolyticus (GC 4546),[2],4 µg/mL
same,MIC Staphylococcus aureus (ATCC 29213),[2]; strain ATCC 29213,8 µg/mL
same,MIC Staphylococcus aureus (GC 1131),[2]; strain GC 1131,8 µg/mL
same,MIC Staphylococcus aureus (GC 3051),[2]; strain GC 3051,8 µg/mL
same,MIC Staphylococcus aureus (GC 3053),[2]; strain GC 3053,8 µg/mL
same,MIC Staphylococcus aureus (GC 4541),[2]; strain GC 4541,4 µg/mL
same,MIC Staphylococcus aureus (GC 4542),[2]; strain GC 4542,8 µg/mL
same,MIC Staphylococcus aureus-SMITH (GC 4543),[2]; strain GC 4543,4 µg/mL
same,MIC Staphylococcus aureus (GC 4544),[2]; strain GC 4544,8 µg/mL
same,MIC Staphylococcus aureus (GC 4545),[2]; strain GC 4545,8 µg/mL
same,MIC Staphylococcus haemolyticus (GC 4546),[2]; strain GC 4546,4 µg/mL
same,MIC Coagulase Negative Staphylococcus (GC 4547),[2]; strain GC 4547,4 µg/mL
same,MIC Coagulase Negative Staphylococcus (GC 4548),[2]; strain GC 4548,4 µg/mL
same,MIC Coagulase Negative Staphylococcus (GC 4549),[2]; strain GC 4549,4 µg/mL
same,MIC Coagulase Negative Staphylococcus (GC 4551),[2]; strain GC 4551,4 µg/mL
same,MIC Coagulase Negative Staphylococcus (GC 6257),[2]; strain GC 6257,2 µg/mL
same,MIC Streptococcus agalactiae (GC 4564),[3],1 µg/mL
same,MIC Streptococcus pneumoniae (ATCC 6301),[3],1 µg/mL
same,MIC Streptococcus pneumoniae (GC 1894),[3],0.12 µg/mL
same,MIC Streptococcus pneumoniae (GC 4565),[3],1 µg/mL
same,MIC Streptococcus pyogenes (GC 4563),[3],0.5 µg/mL
same,MIC Streptococcus pneumoniae (ATCC 6301),[3]; strain ATCC 6301,1 µg/mL
same,MIC Streptococcus pneumoniae (GC 1894),[3]; strain GC 1894,0.12 µg/mL
same,MIC Streptococcus pyogenes (GC 4563),[3]; strain GC 4563,0.5 µg/mL
same,MIC Streptococcus agalactiae (GC 4564),[3]; strain GC 4564,1 µg/mL
same,MIC Streptococcus pneumoniae (GC 4565),[3]; strain GC 4565,1 µg/mL
same,MIC Escherichia coli (ATCC 25922),[4],>64 µg/mL
same,MIC Escherichia coli (GC 4559),[4],64 µg/mL
same,MIC Escherichia coli (GC 4560),[4],4 µg/mL

# Reference: patent US6914045B2, “Glycopeptide antibiotics” (Wyeth Holdings Corporation, priority 2001, dated 2005)
